The test system of one experiment is porcine morulae. The experiment in a line: In vitro development of porcine morulae following NZ treatment. Type of experiment: cell-based. The conditions noted are these: 15 h. As for the experimental part:
In vitro culture of oocytes, embryos and nuclear transfer embryos was conducted in 25 μl droplets of Whitten's medium (Whitten W K, 1971, in G Raspe, ed Advances in the Biosciences, Pergamon Press: Oxford, pp 129-141) supplemented with 15 mg/ml bovine serum albumin (BSA) under paraffin oil in a plastic petrie dish under an atmosphere of 5% CO2, 5% O2 and 90% N2 in humidified air at […].

The test system of experiment [1] is porcine blastomere nuclei. The experiment in a line: Metaphase arrest induced in porcine blastomere nuclei following treatment with nocodazole. In kind it is cell-based. The text has this: Preferably, karyoplasts may be synchronized at the G1 state using a DNA synthesis inhibitor and/or use of a microtubule inhibitor which, on following removal of the inhibitor(s), results in synchronization of the karyoplast at the G1 state, or by means other than DNA inhibition, excluding serum starvation, for example cdk kinase inhibitors such as Butyrolactone I (Motlik et al (1998) Theriogeneology 49: 461-469). Examples of DNA synthesis inhibitors include: aphidicolin, hydroxyurea, cytosine arabinoside, 5-fluorouracil, n-ethylmalemide and etoposide. Any microtubule inhibitor may be used in this invention including nocodazole, colchecine or colcemid. Alternatively, a microtubule stabilizer such as, for example, taxol may be used. Karyoplasts may, for example, be synchronized at G1 by the use of a microtubule inhibitor such as nocodazole (to give a population of nuclei at the metaphase) followed by treatment with a DNA synthesis inhibitor such as aphidicolin in which the nuclei progress to an arrest at the G1 state. […] Karyoplasts may be synchronized in the Go state by nutrient deprivation, such as incubation in a low serum containing medium, as is known in the art, or by chemical treatment. Donor karyoplasts (such as cells) may be incubated in a standard culture medium with a DNA synthesis inhibitor and/or microtubule inhibitor for a time sufficient to synchronize the cells at the G1 state. This can be readily observed by microscopic observations. DNA synthesis inhibitors and/or microtubule inhibitors may be used, for example, in an amount of from about 0.01 μg/ml to about 50 μg/ml, such as about 1-5 μg/ml culture medium. Microtubule inhibitors fix the cells at the M phase. After removal of microtubule inhibitor from the cell media, which can conveniently be done by washing the cells, cells pass to the G1 phase after about 30 minutes to 6 hours in a uniform manner such that a plurality of cells in the G1 phase can be conveniently prepared. A DNA synthesis inhibitor synchronises cells at the G1 phase. Removal of a DNA synthesis inhibitor from cell media allows the cell cycle to proceed. Similarly donor karyoplasts may be synchronized in the G0 state as described above.

As for `COC(=O)Nc1nc2ccc(C(=O)c3cccs3)cc2[nH]1` [NZ, nocodazole], the Development to blastocyst in the experiment with porcine morulae (NZ 0.5 μg/ml, 3 repeats) was 70%; with porcine morulae (NZ 0.5 μg/ml, 3 repeats, number of blastocysts/total), 14/20; in the experiment with porcine morulae (NZ 1 μg/ml, 4 repeats) it was 57%; with porcine morulae (NZ 1 μg/ml, 4 repeats, number of blastocysts/total), 17/30. Also, the “Blastomeres at M” value in experiment [1] (4 h exposure, NZ 1 μg/ml) is given as “(24%)”; in experiment [1] (4 h exposure, NZ 1 μg/ml, number at M/total) it was 14/58; in experiment [1] (7 h exposure, NZ 1 μg/ml), “(41%)”; in experiment [1] (7 h exposure, NZ 1 μg/ml, number at M/total), 54/133; in experiment [1] (15 h exposure, NZ 0.5 μg/ml), “(76%)”; in experiment [1] (15 h exposure, NZ 0.5 μg/ml, number at M/total), 101/133. The “Blastomeres at M” value in experiment [1] (15 h exposure, NZ 1 μg/ml) is listed as “(96%)”; in experiment [1] (15 h exposure, NZ 1 μg/ml, number at M/total), 257/267.

For the origin of these results see US20070107074A1, “Porcine Nuclear Transfer” (Garelag Pty Ltd., priority 1998, published 2007).
